From patent US20030133958A1, “External agent for the skin and whitening agent” (priority 2000, published 2003)

Key:
[1] = system: B-16 melanoma cells; experiment: Cell-survival rate (cytotoxicity) in B-16 melanoma cell culture; format: cell-based
Excerpt: (§1) The B-16 melanoma cell is one having an ability of producing melanin and therefore, the cells naturally grown by cell culture blacken. If a substance capable of inhibiting melanogenesis is present in the cell growth system during the cell growth, the blackening of the cells is inhibited and they relatively whiten. Accordingly, the whitening effect of each candidate substance can be evaluated on the basis of the degree of whiteness observed when adding a test sample relative to the degree of blackness observed for a control. […] To evaluate this cytotoxicity, the cell survival rate observed when adding a test sample to the system is compared with that observed for the control. Thus, the substantial whitening effect can be evaluated on the basis of the results of these cell-whitening test and cytotoxicity test.
The cell-survival rate at each added sample concentration can be determined according to the following formula
Cell-Survival Rate (%)=(A/B)×100
Wherein A represents the viable cell count observed for the system to which a sample is added and B represents the number of cells observed for the control system.

[2] = system: B-16 melanoma cells; experiment: Test for evaluating melanogenesis-inhibitory function (cell-whitening degree) in cell culture systems using B-16 melanoma cells; format: cell-based; set-up: key to Whitening degree: ++: The whitening degree is higher than that observed when adding 450 μg/mL of vitamin C-magnesium phosphate.; +: The whitening degree is almost identical to that observed when adding 450 μ g/mL of vitamin C-magnesium phosphate.; ±: The whitening degree is not higher than that observed when adding 450 μg/mL of vitamin C-magnesium phosphate, but higher than that of the control.; −: The whitening degree is almost identical to that observed for the control
Excerpt: as §1
An example of such a method for evaluating the melanogenesis-inhibitory function in a cell culture system using B-16 melanoma cells comprises, for instance, the steps of dispensing 2 ml/well of a culture medium to each well of a 6-well plate, inoculating a desired amount of melanoma cells to the medium, cultivating the cells by allowing the medium to stand at 37° C. and a carbon dioxide concentration of 5%. On the following day, a solution of a test sample is added and mixed with the culture medium to a predetermined concentration and the cell cultivation is continued. After 5 days from the initiation of the cultivation, the culture medium is replaced with fresh one and the solution of the test sample is again added thereto. On the next day, the medium is removed to thus recover the cells, followed by washing them with PBS (phosphate-buffered saline) and the determination of the degree of whiteness to thus evaluate the whitening effect of the test sample. In this connection, the melanogenesis-inhibitory function is evaluated by comparing the results thus obtained with the degree of whiteness observed when the same procedures are repeated using the vitamin C-magnesium phosphate as a known whitening agent instead of the test sample solution (positive control) and that observed when the procedures are repeated without addition of any test sample (control).
A culture medium was dispensed to wells of a 6-well plate (2 mL/well each), followed by inoculation of a desired amount of B-16 melanoma cells on each well, allowing the wells to stand at 37° C. and 5% CO2 to thus cultivate the cells. On the day subsequent thereto, a sample solution prepared was added to the wells with stirring and the cultivation was continued. The culture medium was replaced with fresh one on the 5th day from the initiation of the cultivation and the sample solution was again added to the wells. On the next day, the culture medium was removed to recover the cells, followed by washing them with PBS (phosphate buffered physiological saline) and then evaluation of the cell-whitening degree In this respect, the melanogenesis-inhibitory function was evaluated by comparing the cell-whitening degree thus obtained with that observed when the same procedures used above were repeated except that vitamin C-magnesium phosphate as a known whitening agent (positive control) was substituted for the sample solution used above and that observed when the same procedures used above were repeated except that any sample was not added (control), according to the following evaluation criteria.
The evaluation criteria for the cell-whitening degree are as follows: […]

[3] = Solubility (oil / water)
[4] = concentration 2 ppm, B-16 melanoma cells
[5] = concentration 4 ppm, B-16 melanoma cells
[6] = concentration 6 ppm, B-16 melanoma cells
[7] = concentration 8 ppm, B-16 melanoma cells
[8] = concentration 10 ppm, B-16 melanoma cells
[9] = concentration 15 ppm, B-16 melanoma cells
[10] = concentration 25 ppm, B-16 melanoma cells
[11] = concentration 50 ppm, B-16 melanoma cells

Row | SMILES | cell-survival rate at the added concentration showing a whitening degree almost identical to vitamin C-magnesium phosphate at 450 ppm ([1]; mouse) | Cell-Survival Rate ([1]; mouse, 2 ppm) [%] | Cell-Survival Rate ([1]; mouse, 4 ppm) [%] | Cell-Survival Rate ([1]; mouse, 6 ppm) [%] | Cell-Survival Rate ([1]; mouse, 8 ppm) [%] | Cell-Survival Rate ([1]; mouse, 10 ppm) [%] | Cell-Survival Rate ([1]; mouse, 15 ppm) [%] | Cell-Survival Rate ([1]; mouse, 25 ppm) [%] | Cell-Survival Rate ([1]; mouse, 50 ppm) [%] | Cell-Survival Rate ([1]; mouse, 100 ppm) [%] | Cell-Survival Rate ([1]; mouse, 200 ppm) [%] | Whitening degree [2, 4] | Whitening degree [2, 5] | Whitening degree [2, 6] | Whitening degree [2, 7] | Whitening degree [2, 8] | Whitening degree [2, 9] | Whitening degree [2, 10] | Whitening degree [2, 11] | oil-solubility, in words [3] | further results
1 | C[C@H]1[C@H](C)CC[C@]2(CO)CC[C@]3(C)C(=CC[C@@H]4[C@@]5(C)CC[C@H](O)C(C)(C)[C@@H]5CC[C@]43C)[C@H]12 [Uvaol, uvaol] | 99-100% | 100 | 100 | 100 | 100 | 100 | 100 | 90 | 82 | 71 | 61 | − | − | − | ± | + | + | + | + | oil-soluble | 
2 | C=C(C)[C@@H]1CC[C@]2(C(=O)O)CC[C@]3(C)[C@H](CC[C@@H]4[C@@]5(C)CC[C@H](O)C(C)(C)[C@@H]5CC[C@]43C)[C@@H]12 [Betulinic acid, betulinic acid] | 99-100% | 100 | 100 | 100 | 100 | 99 | 83 | 76 | 69 | 60 | 51 | − | ± | ± | ± | + | + | + | + | oil-soluble | 
3 | CC1(C)CC[C@]2(C(=O)O)CC[C@]3(C)C(=CC[C@@H]4[C@@]5(C)C[C@@H](O)[C@H](O)C(C)(C)[C@@H]5CC[C@]43C)[C@@H]2C1 [maslinic acid] |  |  |  |  |  |  |  |  |  |  |  |  |  |  |  |  |  |  |  | oil-soluble | solubility in water, in words [3]: hardly soluble in water
4 | CC1(C)CC[C@]2(C(=O)O)CC[C@]3(C)C(=CC[C@@H]4[C@@]5(C)C[C@@H](O)[C@H](O)C(C)(C)[C@@H]5CC[C@]43C)[C@@H]2C1 [Purified maslinic acid 1, maslinic acid] |  |  |  |  |  |  |  |  |  |  |  | ± | + | ++ | ++ | ++ |  |  |  |  | Cell-Survival Rate [1, 4]: 100%; Cell-Survival Rate [1, 5]: 100%; Cell-Survival Rate [1, 6]: 100%; Cell-Survival Rate [1, 7]: 79%; Cell-Survival Rate [1, 8]: 57%; whitening effect, times that observed for vitamin C-magnesium phosphate ([2]; from Table 1, positive control vitamin C-magnesium phosphate 450 ppm): about 110 times; added concentration at which the whitening effect is almost identical to that of the positive control ([2]; positive control vitamin C-magnesium phosphate 450 ppm, B-16 melanoma cells): 4 ppm
5 | CC1(C)CC[C@]2(CO)CC[C@]3(C)C(=CC[C@@H]4[C@@]5(C)CC[C@H](O)C(C)(C)[C@@H]5CC[C@]43C)[C@@H]2C1 [Erythrodiol, erythrodiol] | 99-100% | 100 | 100 | 100 | 100 | 100 | 100 | 100 | 97 | 85 | 72 | ± | ± | ± | ± | ± | ± | + | + | oil-soluble | 
6 | C=C(C)[C@@H]1CC[C@]2(CO)CC[C@]3(C)[C@H](CC[C@@H]4[C@@]5(C)CC[C@H](O)C(C)(C)[C@@H]5CC[C@]43C)[C@@H]12 [Betulin, betulin] |  |  |  |  |  |  |  |  |  |  |  | − | − | ± | ± | ± | + | + | + | oil-soluble | Cell-Survival Rate [1, 4]: 100%; Cell-Survival Rate [1, 5]: 100%; Cell-Survival Rate [1, 6]: 100%; Cell-Survival Rate [1, 7]: 100%; Cell-Survival Rate [1, 8]: 100%; Cell-Survival Rate [1, 9]: 100%; Cell-Survival Rate [1, 10]: 100%; Cell-Survival Rate [1, 11]: 100%
